Results on 7 molecules are retold here after patent publication US20050026236A1, “PDE 10 cell-based assay and sequences” (Pfizer Inc, priority 2001, published 2005).

Assay [1] concerns primary striatal medium spiny neurons. The experiment in a line: cGMP accumulation in SNP-stimulated striatal cultures. Conditions: for EC200 (concentration giving a 2-fold increase in cGMP): concentration yielding a 2-fold increase in cGMP, SNP 100 μM for 2 min after 20 min inhibitor incubation. It counts as cell-based, rat. The procedure:
(§1) Striatal cultures were prepared as previously described (Ventimiglia et al., Eur. J. Neurosci. 7: 213-222, 1995). Briefly, striata (caudate nucleus and putamen) were dissected from E17 rats, dissociated to produce a single cell suspension, and plated at a density of 5×10^4 neurons/well in 96-well plates coated with poly-L-ornithine/laminin (Cat. No. 354657, BD Biosciences, Bedford, Mass.). The cells were plated in Neurobasal medium (Cat. No. 21103-049, Gibco BRL, Grand Island, N.Y.) with B27 supplements (Cat. No. 17504-010, Gibco BRL) and human recombinant brain-derived neurotrophic factor (BDNF) (100 ng/ml) (Cat. No. 248-BD, R & D Systems, Minneapolis, Minn.). Striatal medium spiny neurons comprised 50-60% of cells in these cultures, as confirmed by a GABA immunoreactivity protocol as previously described (Ventimiglia et al., 1995, supra). Expression of PDE10A mRNA in these cultures was confirmed by RNase protection assay, as further described below.
(§2) After approximately four days in vitro, the striatal cells were washed with Ca^2+/Mg^2+ free phosphate buffered saline (pH 7.4) and preincubated for an hour in a buffer containing Ca^2+/Mg^2+ free phosphate buffered saline, 30 mM HEPES (pH 7.4), 1 mM CaCl2, 1 mg/ml dextrose, and 5 mM MgCl2. The striatal cells were then exposed to one of the PDE inhibitors and incubated for 20 min. at 37° C. When measuring cGMP, the neurons were stimulated with sodium nitroprusside (SNP) (100 μM) for two min. after the 20 min. incubation with the PDE inhibitor.
(§3) The cells were lysed using a 9:1 combination of SPA direct screening Assay Buffer (0.05 M acetate with 0.01% sodium azide) and Buffer A (133 mg/ml dodecyltrimethylammonium bromide), and the lysates were frozen on dry ice.

Assay [2] shares this test system. The experiment in a line: cAMP accumulation in forskolin-stimulated striatal cultures. In kind it is cell-based, rat. Conditions: ratio of EC200 values in striatal cultures. As for the experimental part:
as §1, §2, §3

Assay [3] has as its system PDE10A. The experiment in a line: Papaverine inhibition of PDE10A, SPA-based PDE assay. In kind it is biochemical. As for the experimental part:
Phosphodiesterases 7-11 were generated from full length recombinant clones transfected into SF9 cells as previously described (Fisher et al., Biochem. Biophys. Res. Comm. 246: 570-577, 1998; Fisher et al., J. Biol. Chem. 273: 15559-15564, 1998b; Soderling et al., PNAS 96: 7071-7076, 1999; Fawcett et al., PNAS 97: 3702-3707, 2000). The enzymes were purified by FPLC from the soluble fraction of cell lysates as described in Boolell et al., supra.
PDE activity was measured using a SPA-based method as previously described (Fawcett et al., 2000). Assays were conducted using a fixed amount of PDE10A enzyme in the presence of varying inhibitor concentrations. […] The final assay volume was adjusted to 100 μl with assay buffer (20 mM Tris-HCl pH 7.4, 5 mM MgCl2, 1 mg/ml bovine serum albumin).
Reactions were initiated with the addition of enzyme. Samples were incubated for 30-60 min. at 30° C. to give <30% substrate turnover and terminated with 50 μl yttrium silicate SPA beads (Amersham) containing 3 mM of the appropriate unlabelled cyclic nucleotide. Plates were re-sealed and shaken for 20 min.; the beads were then allowed to settle for 30 min. in the dark and then counted on a TopCount plate reader (Packard, Meriden, Conn.). Radioactivity units were converted to percent activity as compared to an uninhibited control (100%). […]

The test system of a further assay is PDE1. Conditions: substrate at 1/3 Km.
For another assay, the system named is PDE7. Conditions: substrate at 1/3 Km.
In assay [4] the test system is primary striatal medium spiny neurons. The experiment in a line: cGMP accumulation in cultured primary striatal medium spiny neurons. In kind it is cell-based, rat. Conditions: 100 μM; SNP-stimulated.
Assay [5] has the same test system. Nature of the assay: cAMP accumulation in cultured primary striatal medium spiny neurons. Conditions: Rattus norvegicus, Neuron.
The test system of assay [6] is PDE10A. Conditions: cited from earlier work.

The IC50 is the concentration that inhibits the measured activity by half. Read a low IC50 as inhibition by little substance. Usually Km stands for the substrate concentration at which the rate is half of its maximum.

Molecules are shown by their SMILES.

For `CCCOc1ccccc1-c1nc2nn[nH]c2c(=O)[nH]1` [Zaprinast, zaprinast], the EC200 (concentration giving a 2-fold increase in cGMP) is above 100 µM in assay [1] (Rattus norvegicus, Neuron) and 98.3 ± 10.3 µM in assay [1]. Further, the “cAMP EC200/cGMP EC200” value in assay [2] turned out to be 1.
For `COc1ccc(Cc2nccc3cc(OC)c(OC)cc23)cc1OC` [Papaverine], in the assay on PDE10A [3], the mode of inhibition result is “competitive inhibitor”. For the same molecule, the “cGMP levels elevated over cultures stimulated with SNP alone (maximal effect)” value in assay [1] (100 μM papaverine, SNP 100 μM) came to 5 fold. Besides, the “effect on cGMP levels in unstimulated cells” value in assay [1] (cells unstimulated by SNP or forskolin) is listed as “did not affect”. Moreover, the IC50 came to 37 µM in the assay on PDE1 and 27 µM in the assay on PDE7.
As to `CC(C)Cn1c(=O)n(C)c(=O)c2[nH]cnc21` [IBMX, 3-isobutyl-1-methylxanthine], the EC200 (concentration giving a 2-fold increase in cGMP) in assay [1] (Rattus norvegicus, Neuron) was determined as 19 µM; in assay [1] it was 19.5 µM. In addition, the “cAMP EC200/cGMP EC200” value in assay [2] came out at 1.5.
As for `COc1ccc(C2CNC(=O)C2)cc1OC1CCCC1` (stereo not shown) [Rolipram, rolipram], the EC200 (concentration giving a 2-fold increase in cGMP) in assay [1] (Rattus norvegicus, Neuron) came out at 29.2 ± 10.3 µM. Further, the “concentration needed to double the rate of cGMP accumulation relative to cAMP EC200” value in assay [1] (higher than cAMP EC200 of 2.5 μM) was 10 fold. The “cAMP EC200/cGMP EC200” value in assay [2] is 0.09.
Consider `CCCOc1ccccc1-c1nc2nn[nH]c2c(=O)[nH]1` [Zaprinast], for which the “effect on level of cGMP” value in assay [4] was “did not quite double the level of cGMP”.
Regarding `C=C[C@@]1(C)CC(=O)[C@]2(O)[C@@]3(C)[C@@H](O)CCC(C)(C)[C@@H]3[C@H](O)[C@H](OC(C)=O)[C@@]2(C)O1` [forskolin], the fold induction at 1 µM in assay [5] (read-out: increase over basal cAMP) was in the range of 2 to 3. In addition, the activation at 1 µM in assay [5] (read-out: per cent of the maximal cAMP response) lay in the range of 20 to 25%.
As to `Nc1nc2c(ncn2[C@@H]2O[C@@H]3COP(=O)(O)O[C@H]3[C@H]2O)c(=O)[nH]1` [cGMP, cyclic guanine 3′5′-monophosphate], the “greater Vmax for cGMP over cAMP” value in the assay on PDE10A [6] (Fujishige et al., 1999) is “approximately 5 fold”. Further, in the assay on PDE10A [6] (read-out: Km for cGMP), the Km was 3 µM.
